The text below walks through data of patent US20230151003A1, “COMPOUNDS AND METHODS OF USE” (Exelixis, Inc., priority 2020, published 2023).

A value given as a limit tells only on which side of the number the result lay.

In one assay the target is Met (Homo sapiens, UniProt P08581). Description: Met autophosphorylation ELISA in PC-3 cells. The class given is cell-based. On the set-up: endogenous in cells; host or cells: PC-3 prostate cancer cells (ATCC #CRL-1435). The following applies: Table 3 Cellular Activities, HGF-stimulated, phospho-Met ELISA, read-out: c-Met IC50. Put shortly:
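IC50 derived by 4-parameter logistic regression of phospho-Met (panTyr) sandwich ELISA signal, scaled between HGF-stimulated DMSO and reference-inhibitor lysates. PC-3 cells, serum-starved 3 h, received an 8-point compound series (0.3% DMSO) for 1 h before 10 min stimulation with 100 ng/mL human HGF.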

Another assay concerns the target T1, AXL (Homo sapiens, UniProt P30530).
T1 construct: endogenous in cells; host or cells: A-172 glioblastoma cells (ATCC #CRL-1620)
T1 sequence (P30530 26-894): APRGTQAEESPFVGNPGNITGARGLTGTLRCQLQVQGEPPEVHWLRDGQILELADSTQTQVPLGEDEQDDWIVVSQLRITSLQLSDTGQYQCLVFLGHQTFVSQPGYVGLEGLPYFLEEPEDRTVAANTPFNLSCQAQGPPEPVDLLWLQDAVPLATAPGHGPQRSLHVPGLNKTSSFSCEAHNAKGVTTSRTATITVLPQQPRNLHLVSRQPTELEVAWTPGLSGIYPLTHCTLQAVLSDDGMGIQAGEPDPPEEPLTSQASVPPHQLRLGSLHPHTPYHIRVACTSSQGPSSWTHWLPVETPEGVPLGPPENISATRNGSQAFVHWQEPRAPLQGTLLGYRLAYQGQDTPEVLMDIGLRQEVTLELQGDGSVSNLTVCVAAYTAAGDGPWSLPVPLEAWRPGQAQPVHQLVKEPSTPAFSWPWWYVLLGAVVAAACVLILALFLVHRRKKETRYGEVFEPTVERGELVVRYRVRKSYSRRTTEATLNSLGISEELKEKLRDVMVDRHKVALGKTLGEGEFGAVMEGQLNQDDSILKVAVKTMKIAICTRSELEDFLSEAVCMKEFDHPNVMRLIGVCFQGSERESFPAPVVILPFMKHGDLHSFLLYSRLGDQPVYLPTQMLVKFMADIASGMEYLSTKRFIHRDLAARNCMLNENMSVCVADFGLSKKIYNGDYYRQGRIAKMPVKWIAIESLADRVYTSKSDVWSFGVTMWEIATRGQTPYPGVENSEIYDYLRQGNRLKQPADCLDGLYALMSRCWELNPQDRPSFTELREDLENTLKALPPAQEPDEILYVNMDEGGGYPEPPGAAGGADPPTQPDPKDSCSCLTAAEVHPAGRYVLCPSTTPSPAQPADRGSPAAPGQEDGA
Description: AXL autophosphorylation ELISA in A-172 cells. It is filed as cell-based. The following applies: Table 3 Cellular Activities, Gas6-stimulated, phospho-AXL ELISA. Put shortly:
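Phospho-AXL in lysates measured by ELISA after Gas6 stimulation (1 μg/mL, 15 min) of A-172 cells pre-incubated 1 h with an 8-point compound dilution series in 0.3% DMSO after 24 h serum starvation. IC50 by 4-parameter logistic fit, with DMSO-treated and reference-inhibitor wells as 100% and 0% activity.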

Chain of Met (P08581 25-1390): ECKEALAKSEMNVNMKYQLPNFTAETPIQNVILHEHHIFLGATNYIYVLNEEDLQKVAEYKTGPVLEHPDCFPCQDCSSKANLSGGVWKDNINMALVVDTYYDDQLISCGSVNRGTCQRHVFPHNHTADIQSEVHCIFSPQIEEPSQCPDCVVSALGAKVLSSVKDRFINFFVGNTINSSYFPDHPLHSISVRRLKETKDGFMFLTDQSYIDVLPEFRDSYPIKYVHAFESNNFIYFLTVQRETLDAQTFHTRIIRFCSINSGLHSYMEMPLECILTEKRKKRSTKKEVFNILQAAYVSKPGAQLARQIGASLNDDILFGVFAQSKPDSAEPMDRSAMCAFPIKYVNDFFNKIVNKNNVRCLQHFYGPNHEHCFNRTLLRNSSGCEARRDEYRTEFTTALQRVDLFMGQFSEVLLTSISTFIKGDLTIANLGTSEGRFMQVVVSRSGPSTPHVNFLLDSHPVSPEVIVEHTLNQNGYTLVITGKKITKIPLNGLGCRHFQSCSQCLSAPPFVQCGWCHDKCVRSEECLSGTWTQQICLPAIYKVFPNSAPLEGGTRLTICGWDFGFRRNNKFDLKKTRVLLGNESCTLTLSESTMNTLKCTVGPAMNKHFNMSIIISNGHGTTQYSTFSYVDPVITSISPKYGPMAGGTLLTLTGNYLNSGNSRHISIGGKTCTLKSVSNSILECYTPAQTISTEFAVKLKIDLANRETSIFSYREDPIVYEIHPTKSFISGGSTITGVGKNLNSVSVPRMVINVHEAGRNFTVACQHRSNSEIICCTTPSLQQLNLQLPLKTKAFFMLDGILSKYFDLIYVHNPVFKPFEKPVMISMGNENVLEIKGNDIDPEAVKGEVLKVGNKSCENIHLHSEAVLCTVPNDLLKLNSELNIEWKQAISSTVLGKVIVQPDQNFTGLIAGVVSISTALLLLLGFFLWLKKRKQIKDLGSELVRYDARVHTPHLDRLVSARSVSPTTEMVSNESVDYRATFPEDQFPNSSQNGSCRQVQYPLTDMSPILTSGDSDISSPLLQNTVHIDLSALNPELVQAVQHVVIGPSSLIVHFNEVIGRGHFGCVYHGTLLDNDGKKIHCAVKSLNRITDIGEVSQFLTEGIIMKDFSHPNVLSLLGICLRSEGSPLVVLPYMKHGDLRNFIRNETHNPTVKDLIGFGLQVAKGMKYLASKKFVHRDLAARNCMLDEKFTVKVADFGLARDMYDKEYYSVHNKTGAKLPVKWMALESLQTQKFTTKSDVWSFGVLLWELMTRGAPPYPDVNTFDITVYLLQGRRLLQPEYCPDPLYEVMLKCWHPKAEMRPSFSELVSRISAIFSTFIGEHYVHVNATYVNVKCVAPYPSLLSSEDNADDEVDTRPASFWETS

As to `CCc1ccc(-c2c(C)nc(C)c(C(=O)Nc3ccc(Oc4ccnc5cc(OC)c(OC)nc45)c(F)c3)c2O)o1` [Compound 147, N-[4-[(6,7-Dimethoxy-1,5-naphthyridin-4-yl)oxy]-3-fluorophenyl]-5-(5-ethylfuran-2-yl)-4-hydroxy-2,6-dimethylpyridine-3-carboxamide], the IC50 at Met and at AXL was ≤ 100 nM each time.

Turning to `COc1cc2nccc(Oc3ccc(NC(=O)c4cn(CCF)c(C)c(-c5ccco5)c4=O)cc3F)c2nc1OC` [Compound 333, N-[4-[(6,7-Dimethoxy-1,5-naphthyridin-4-yl)oxy]-3-fluorophenyl]-1-(2-fluoroethyl)-5-(furan-2-yl)-6-methyl-4-oxopyridine-3-carboxamide], the 50% inhibitory concentration (IC50) at Met and on AXL was ≤ 100 nM in each case.

On to `COc1cnc2c(Oc3ccc(NC(=O)c4cn(CCF)c(C)c(-c5ccsc5)c4=O)cc3F)ccnc2c1` [Compound 330, 1-(2-Fluoroethyl)-N-[3-fluoro-4-[(7-methoxy-1,5-naphthyridin-4-yl)oxy]phenyl]-6-methyl-4-oxo-5-thiophen-3-ylpyridine-3-carboxamide], for which the IC50 at Met and at AXL was ≤ 100 nM in each case.

For `COc1cc2nccc(Oc3ccc(NC(=O)c4c(C)n(C)c(C)c(-c5ccco5)c4=O)cc3F)c2nc1OC` [Compound 160, N-[4-[(6,7-Dimethoxy-1,5-naphthyridin-4-yl)oxy]-3-fluorophenyl]-5-(furan-2-yl)-1,2,6-trimethyl-4-oxopyridine-3-carboxamide], the IC50 at Met and at AXL was ≤ 100 nM each time.

`COc1cc2nccc(Oc3ccc(NC(=O)c4cnc(C)c(-c5sccc5C)c4O)cc3F)c2nc1OC` [Compound 103, N-[4-[(6,7-Dimethoxy-1,5-naphthyridin-4-yl)oxy]-3-fluoro-phenyl]-4-hydroxy-6-methyl-5-(3-methyl-2-thienyl) pyridine-3-carboxamide]: the IC50 at Met and against AXL was ≤ 100 nM in each case.

For `COc1cc2nccc(Oc3ccc(NC(=O)c4cnc(C)c(-c5ccoc5)c4O)cc3F)c2nc1OC` [Compound 95, N-[4-[(6,7-Dimethoxy-1,5-naphthyridin-4-yl)oxy]-3-fluoro-phenyl]-5-(3-furyl)-4-hydroxy-6-methyl-pyridine-3-carboxamide], the IC50 on Met and at AXL was ≤ 100 nM each time.

Regarding `COc1cnc2c(Oc3ccc(NC(=O)c4cnc(C)c(-c5ccc(C)o5)c4O)cc3F)ccnc2c1` [Compound 97, N-[3-Fluoro-4-[(7-methoxy-1,5-naphthyridin-4-yl)oxy]phenyl]-4-hydroxy-6-methyl-5-(5-methyl-2-furyl)pyridine-3-carboxamide], the IC50 on Met is 100 to 300 nM; on AXL, ≤ 100 nM.
